Results reported in PubChem BioAssay (NCI).
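Dose response: 5 concentrations. Exposure: 48 h. Format: 96-well plates. Endpoint: linear interpolation; highest concentration if not reached. Here, GI50 denotes the concentration required for 50% inhibition of growth. At the TGI there is no net growth.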

Columns and labels:
Assay in all cases: DTP human tumour cell line panel, 48 h
MOLT-4 leukemia = test system: MOLT-4 leukemia
SR leukemia = test system: SR leukemia
SK-MEL-28 melanoma = test system: SK-MEL-28 melanoma
COLO 205 colon = test system: COLO 205 colon
CAKI-1 renal = test system: CAKI-1 renal
A498 renal = test system: A498 renal
K-562 leukemia = test system: K-562 leukemia
OVCAR-8 ovarian = test system: OVCAR-8 ovarian
HL-60(TB) leukemia = test system: HL-60(TB) leukemia
NCI-H460 lung = test system: NCI-H460 lung
CCRF-CEM leukemia = test system: CCRF-CEM leukemia
UACC-62 melanoma = test system: UACC-62 melanoma
HOP-62 NSCLC = test system: HOP-62 NSCLC
ACHN renal = test system: ACHN renal
DU-145 prostate = test system: DU-145 prostate
SF-539 CNS = test system: SF-539 CNS
BT-549 breast = test system: BT-549 breast
HT29 colon = test system: HT29 colon
MDA-MB-435 = test system: MDA-MB-435
RXF 393 renal = test system: RXF 393 renal
786-0 renal = test system: 786-0 renal
MDA-MB-231 breast = test system: MDA-MB-231 breast
SN12C renal = test system: SN12C renal
SW-620 colon = test system: SW-620 colon
UO-31 renal = test system: UO-31 renal
SK-MEL-5 melanoma = test system: SK-MEL-5 melanoma
SF-268 CNS = test system: SF-268 CNS
HCT-116 colon = test system: HCT-116 colon
HOP-92 NSCLC = test system: HOP-92 NSCLC
PC-3 prostate = test system: PC-3 prostate
NCI-H522 lung = test system: NCI-H522 lung
SNB-19 CNS = test system: SNB-19 CNS
SNB-75 CNS = test system: SNB-75 CNS
KM12 colon = test system: KM12 colon
TK-10 renal = test system: TK-10 renal
U251 CNS = test system: U251 CNS
SK-OV-3 ovarian = test system: SK-OV-3 ovarian
MALME-3M melanoma = test system: MALME-3M melanoma
RPMI-8226 leukemia = test system: RPMI-8226 leukemia
T-47D breast = test system: T-47D breast
NCI-H23 lung = test system: NCI-H23 lung
M14 melanoma = test system: M14 melanoma
HCC-2998 colon = test system: HCC-2998 colon
OVCAR-5 ovarian = test system: OVCAR-5 ovarian
UACC-257 melanoma = test system: UACC-257 melanoma
EKVX NSCLC = test system: EKVX NSCLC
OVCAR-3 ovarian = test system: OVCAR-3 ovarian
A549 NSCLC = test system: A549 NSCLC
SK-MEL-2 melanoma = test system: SK-MEL-2 melanoma
HS 578T breast = test system: HS 578T breast
IGROV1 ovarian = test system: IGROV1 ovarian
LOX IMVI melanoma = test system: LOX IMVI melanoma
NCI-H226 lung = test system: NCI-H226 lung
HCT-15 colon = test system: HCT-15 colon
NCI/ADR-RES ovarian = test system: NCI/ADR-RES ovarian
SF-295 CNS = test system: SF-295 CNS
OVCAR-4 ovarian = test system: OVCAR-4 ovarian
MCF7 breast = test system: MCF7 breast

SMILES: CCCCCCCCCCCCCCCCCC1=NCCN1CCOC1=C(Cl)C(=O)c2ccccc2C1=O
- GI50 (MOLT-4 leukemia): 747 nM
- TGI (MOLT-4 leukemia): 3.8 µM
- GI50 (SR leukemia): 2070 nM
- TGI (SR leukemia): 4.72 µM
- GI50 (SK-MEL-28 melanoma): 3.31 µM
- TGI (SK-MEL-28 melanoma): 9.05 µM
- GI50 (COLO 205 colon): 1670 nM
- TGI (COLO 205 colon): 3.09 µM
- GI50 (CAKI-1 renal): 1570 nM
- TGI (CAKI-1 renal): 2.98 µM
- GI50 (A498 renal): 3.92 µM
- TGI (A498 renal): 14.7 µM
- GI50 (K-562 leukemia): 828 nM
- TGI (K-562 leukemia): 4.2 µM
- GI50 (OVCAR-8 ovarian): 1950 nM
- TGI (OVCAR-8 ovarian): 4.43 µM
- GI50 (HL-60(TB) leukemia): 1340 nM
- TGI (HL-60(TB) leukemia): 6 µM
- GI50 (NCI-H460 lung): 3.33 µM
- TGI (NCI-H460 lung): 16.1 µM
- GI50 (CCRF-CEM leukemia): 527 nM
- TGI (CCRF-CEM leukemia): 7.17 µM
- GI50 (UACC-62 melanoma): 2120 nM
- TGI (UACC-62 melanoma): 4.99 µM
- GI50 (HOP-62 NSCLC): 1770 nM
- TGI (HOP-62 NSCLC): 3.27 µM
- GI50 (ACHN renal): 1580 nM
- TGI (ACHN renal): 3.01 µM
- GI50 (DU-145 prostate): 6.09 µM
- TGI (DU-145 prostate): 18.1 µM
- GI50 (SF-539 CNS): 1830 nM
- TGI (SF-539 CNS): 3.78 µM
- GI50 (BT-549 breast): 2460 nM
- TGI (BT-549 breast): 6.12 µM
- GI50 (HT29 colon): 2580 nM
- TGI (HT29 colon): 6.13 µM
- GI50 (MDA-MB-435): 2050 nM
- TGI (MDA-MB-435): 4.02 µM
- GI50 (RXF 393 renal): 1790 nM
- TGI (RXF 393 renal): 3.2 µM
- GI50 (786-0 renal): 2190 nM
- TGI (786-0 renal): 4.09 µM
- GI50 (MDA-MB-231 breast): 2050 nM
- TGI (MDA-MB-231 breast): 5.03 µM
- GI50 (SN12C renal): 3.18 µM
- TGI (SN12C renal): 9.47 µM
- GI50 (SW-620 colon): 1730 nM
- TGI (SW-620 colon): 3.41 µM
- GI50 (UO-31 renal): 1370 nM
- TGI (UO-31 renal): 2.77 µM
- GI50 (SK-MEL-5 melanoma): 2360 nM
- TGI (SK-MEL-5 melanoma): 6.75 µM
- GI50 (SF-268 CNS): 2080 nM
- TGI (SF-268 CNS): 4.61 µM
- GI50 (HCT-116 colon): 1820 nM
- TGI (HCT-116 colon): 3.43 µM
- GI50 (HOP-92 NSCLC): 1780 nM
- TGI (HOP-92 NSCLC): 3.4 µM
- GI50 (PC-3 prostate): 1850 nM
- TGI (PC-3 prostate): 4.27 µM
- GI50 (NCI-H522 lung): 1790 nM
- TGI (NCI-H522 lung): 3.38 µM
- GI50 (SNB-19 CNS): 3.56 µM
- TGI (SNB-19 CNS): 11.5 µM
- GI50 (SNB-75 CNS): 2200 nM
- TGI (SNB-75 CNS): 8.54 µM
- GI50 (KM12 colon): 1910 nM
- TGI (KM12 colon): 3.61 µM
- GI50 (TK-10 renal): 2190 nM
- TGI (TK-10 renal): 3.76 µM
- GI50 (U251 CNS): 1870 nM
- TGI (U251 CNS): 3.67 µM
- GI50 (SK-OV-3 ovarian): 1930 nM
- TGI (SK-OV-3 ovarian): 5.11 µM
- GI50 (MALME-3M melanoma): 1950 nM
- TGI (MALME-3M melanoma): 4.13 µM
- GI50 (RPMI-8226 leukemia): 2170 nM
- TGI (RPMI-8226 leukemia): 5.28 µM
- GI50 (T-47D breast): 1860 nM
- TGI (T-47D breast): 4.43 µM
- GI50 (NCI-H23 lung): 2500 nM
- TGI (NCI-H23 lung): 7.73 µM
- GI50 (M14 melanoma): 1840 nM
- TGI (M14 melanoma): 3.39 µM
- GI50 (HCC-2998 colon): 3.51 µM
- TGI (HCC-2998 colon): 12.3 µM
- GI50 (OVCAR-5 ovarian): 2290 nM
- TGI (OVCAR-5 ovarian): 5.27 µM
- GI50 (UACC-257 melanoma): 1830 nM
- TGI (UACC-257 melanoma): 3.3 µM
- GI50 (EKVX NSCLC): 1460 nM
- TGI (EKVX NSCLC): 3.32 µM
- GI50 (OVCAR-3 ovarian): 1850 nM
- TGI (OVCAR-3 ovarian): 3.34 µM
- GI50 (A549 NSCLC): 4.48 µM
- TGI (A549 NSCLC): 22.9 µM
- GI50 (SK-MEL-2 melanoma): 2390 nM
- TGI (SK-MEL-2 melanoma): 5.08 µM

SMILES: COc1ccc(CC2(O)C3CC4CCC2C4C3)cc1 (stereo not given)
- TGI (MOLT-4 leukemia): > 100 µM
- TGI (SR leukemia): > 100 µM
- TGI (SK-MEL-28 melanoma): > 100 µM
- TGI (COLO 205 colon): > 100 µM
- TGI (HS 578T breast): > 100 µM
- TGI (CAKI-1 renal): > 100 µM
- TGI (K-562 leukemia): > 100 µM
- TGI (OVCAR-8 ovarian): > 100 µM
- TGI (HL-60(TB) leukemia): > 100 µM
- TGI (NCI-H460 lung): > 100 µM
- TGI (IGROV1 ovarian): > 100 µM
- TGI (CCRF-CEM leukemia): > 100 µM
- TGI (UACC-62 melanoma): > 100 µM
- TGI (LOX IMVI melanoma): > 100 µM
- TGI (HOP-62 NSCLC): > 100 µM
- TGI (NCI-H226 lung): > 100 µM
- TGI (ACHN renal): > 100 µM
- TGI (HCT-15 colon): > 100 µM
- TGI (BT-549 breast): > 100 µM
- TGI (HT29 colon): > 100 µM
- TGI (MDA-MB-435): > 100 µM
- TGI (786-0 renal): > 100 µM
- TGI (SN12C renal): > 100 µM
- TGI (NCI/ADR-RES ovarian): > 100 µM
- TGI (SW-620 colon): > 100 µM
- TGI (SF-295 CNS): > 100 µM
- TGI (UO-31 renal): > 100 µM
- TGI (SK-MEL-5 melanoma): > 100 µM
- TGI (SF-268 CNS): > 100 µM
- TGI (HOP-92 NSCLC): > 100 µM
- TGI (OVCAR-4 ovarian): > 100 µM
- TGI (PC-3 prostate): > 100 µM
- TGI (NCI-H522 lung): > 100 µM
- TGI (SNB-19 CNS): > 100 µM
- TGI (SNB-75 CNS): > 100 µM
- TGI (KM12 colon): > 100 µM
- TGI (TK-10 renal): > 100 µM
- TGI (U251 CNS): > 100 µM
- TGI (SK-OV-3 ovarian): > 100 µM
- TGI (MALME-3M melanoma): > 100 µM
- TGI (RPMI-8226 leukemia): > 100 µM
- TGI (NCI-H23 lung): > 100 µM
- TGI (M14 melanoma): > 100 µM
- TGI (MCF7 breast): > 100 µM
- TGI (OVCAR-5 ovarian): > 100 µM
- TGI (UACC-257 melanoma): > 100 µM
- TGI (EKVX NSCLC): > 100 µM
- TGI (OVCAR-3 ovarian): > 100 µM
- TGI (A549 NSCLC): > 100 µM
- TGI (SK-MEL-2 melanoma): > 100 µM

SMILES: CCN1CCC(C)OP1(=O)Cc1ccccc1 (stereo not given)
- TGI (SR leukemia): > 100 µM
- TGI (COLO 205 colon): > 100 µM
- TGI (CAKI-1 renal): > 100 µM
- TGI (K-562 leukemia): > 100 µM
- TGI (OVCAR-8 ovarian): > 100 µM
- TGI (NCI-H460 lung): > 100 µM
- TGI (IGROV1 ovarian): > 100 µM
- TGI (UACC-62 melanoma): > 100 µM
- TGI (LOX IMVI melanoma): > 100 µM
- TGI (HOP-62 NSCLC): > 100 µM
- TGI (NCI-H226 lung): > 100 µM
- TGI (ACHN renal): > 100 µM
- TGI (DU-145 prostate): > 100 µM
- TGI (SF-539 CNS): > 100 µM
- TGI (HCT-15 colon): > 100 µM
- TGI (BT-549 breast): > 100 µM
- TGI (HT29 colon): > 100 µM
- TGI (MDA-MB-435): > 100 µM
- TGI (786-0 renal): > 100 µM
- TGI (MDA-MB-231 breast): > 100 µM
- TGI (NCI/ADR-RES ovarian): > 100 µM
- TGI (SW-620 colon): > 100 µM
- TGI (SF-295 CNS): > 100 µM
- TGI (UO-31 renal): > 100 µM
- TGI (SK-MEL-5 melanoma): > 100 µM
- TGI (SF-268 CNS): > 100 µM
- TGI (HCT-116 colon): > 100 µM
- TGI (OVCAR-4 ovarian): > 100 µM
- TGI (PC-3 prostate): > 100 µM
- TGI (SNB-19 CNS): > 100 µM
- TGI (KM12 colon): > 100 µM
- TGI (TK-10 renal): > 100 µM
- TGI (U251 CNS): > 100 µM
- TGI (SK-OV-3 ovarian): > 100 µM
- TGI (MALME-3M melanoma): > 100 µM
- TGI (RPMI-8226 leukemia): > 100 µM
- TGI (T-47D breast): > 100 µM
- TGI (NCI-H23 lung): > 100 µM
- TGI (M14 melanoma): > 100 µM
- TGI (MCF7 breast): > 100 µM
- TGI (HCC-2998 colon): > 100 µM
- TGI (OVCAR-5 ovarian): > 100 µM
- TGI (UACC-257 melanoma): > 100 µM
- TGI (EKVX NSCLC): > 100 µM
- TGI (OVCAR-3 ovarian): > 100 µM
- TGI (A549 NSCLC): > 100 µM
- TGI (SK-MEL-2 melanoma): > 100 µM
